Experimental data from patent US12240816B2, “Deuterated compounds and uses thereof” (Aldeyra Therapeutics, Inc., priority 2015, dated 2025).
“And” between values parts separate entries of the source, which are not always exact repeats. Equal values may be shown once. “Also recorded” adds a separate entry of the source. Marks after values point to notes of the source that are not given here.

Legend:
5-HT2B (h) = 5-HT2B (h) (Homo sapiens, UniProt P41595); test: 5-HT2B (h) (agonist radioligand) binding assay
[1] = biological target: enzyme and uptake assay panel targets (Table 36) (Homo sapiens, UniProt O00408); test: biochemical; format: biochemical; settings: PDE2A1 (h); reference compound
rat hippocampal cultures [2] = test: cells; format: cell-based; settings: DMSO; for Neuronal viability (CFDA), % of Control / Neuronal viability (CFDA), Mean / Neuronal viability (CFDA), individual values: 5 hours
rat hippocampal cultures [3] = test: Propidium iodide cell death assay, protection from hydrogen peroxide toxicity; format: cell-based; settings: DMSO; for Cell death (Propidium Iodide), % of Control / Cell death (Propidium Iodide), Mean / Cell death (Propidium Iodide), individual values: 5 hours
[4] = 0.1 μM + 10 μM hydrogen peroxide
[5] = 10 μM + 10 μM hydrogen peroxide
[6] = 100 μM + 10 μM hydrogen peroxide
[7] = 300 μM + 10 μM hydrogen peroxide
[8] = Example 13, CFDA, 10 μM hydrogen peroxide, 5 h, 0.1 to 300 μM tested
[9] = Example 13, PI, 10 μM hydrogen peroxide, 5 h, 0.1 to 300 μM tested

Sequence of 5-HT2B (h) (P41595 whole entry): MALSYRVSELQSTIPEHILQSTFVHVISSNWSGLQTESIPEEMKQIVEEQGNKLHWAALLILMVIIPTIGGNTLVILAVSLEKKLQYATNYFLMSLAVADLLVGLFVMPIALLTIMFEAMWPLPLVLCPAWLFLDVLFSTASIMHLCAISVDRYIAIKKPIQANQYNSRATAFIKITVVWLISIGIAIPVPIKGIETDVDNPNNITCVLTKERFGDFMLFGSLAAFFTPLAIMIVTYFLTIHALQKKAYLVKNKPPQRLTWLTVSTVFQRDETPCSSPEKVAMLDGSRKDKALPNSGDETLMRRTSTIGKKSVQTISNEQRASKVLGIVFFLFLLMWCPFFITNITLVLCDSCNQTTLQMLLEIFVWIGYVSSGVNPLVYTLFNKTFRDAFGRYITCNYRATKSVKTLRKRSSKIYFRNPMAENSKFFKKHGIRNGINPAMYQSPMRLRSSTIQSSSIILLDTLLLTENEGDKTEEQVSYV
Sequence of enzyme and uptake assay panel targets (Table 36) (O00408 whole entry): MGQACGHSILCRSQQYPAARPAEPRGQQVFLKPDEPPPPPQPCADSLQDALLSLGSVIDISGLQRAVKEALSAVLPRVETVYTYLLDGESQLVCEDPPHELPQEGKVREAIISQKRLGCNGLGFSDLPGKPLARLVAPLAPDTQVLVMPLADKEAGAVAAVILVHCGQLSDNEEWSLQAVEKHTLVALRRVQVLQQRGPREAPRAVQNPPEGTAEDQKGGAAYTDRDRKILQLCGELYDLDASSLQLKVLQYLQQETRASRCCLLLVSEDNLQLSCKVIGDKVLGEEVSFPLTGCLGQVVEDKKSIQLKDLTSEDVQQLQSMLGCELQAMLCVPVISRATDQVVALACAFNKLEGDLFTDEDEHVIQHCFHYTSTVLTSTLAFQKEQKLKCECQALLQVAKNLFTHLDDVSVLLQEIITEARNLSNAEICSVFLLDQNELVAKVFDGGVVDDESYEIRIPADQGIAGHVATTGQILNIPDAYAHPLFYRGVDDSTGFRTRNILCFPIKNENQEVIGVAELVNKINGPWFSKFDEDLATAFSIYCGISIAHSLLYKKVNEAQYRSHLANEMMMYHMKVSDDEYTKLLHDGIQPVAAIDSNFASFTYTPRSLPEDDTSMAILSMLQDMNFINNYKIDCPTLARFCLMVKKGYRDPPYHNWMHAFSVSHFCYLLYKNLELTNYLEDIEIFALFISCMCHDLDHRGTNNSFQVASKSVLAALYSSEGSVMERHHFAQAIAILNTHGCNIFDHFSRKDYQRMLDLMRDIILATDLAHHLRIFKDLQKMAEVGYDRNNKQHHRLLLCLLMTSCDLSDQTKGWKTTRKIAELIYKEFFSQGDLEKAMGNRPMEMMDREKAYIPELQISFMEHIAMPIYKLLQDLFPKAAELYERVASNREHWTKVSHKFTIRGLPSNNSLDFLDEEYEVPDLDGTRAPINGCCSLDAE

## COc1cc(CC(C)N)c(OC)cc1I (racemic) [(±)DO1]
5-HT2B (h)
  IC50: 6.9 nM
  nH: 0.9

## CCCCCC[C@@H]([C@@H](C)O)n1cnc2c(N)ncnc21 (racemic) [EHNA]
[1]
  IC50: 1100 nM
  nH: 0.8

## CC(C)(O)c1nc2ccccc2nc1N [ALD2]
Rat hippocampal cultures [2]; [4]
  Neuronal viability (CFDA), % of Control: 67 ± 3%
  Neuronal viability (CFDA), Mean: 38243
  Neuronal viability (CFDA), individual values: 40839 (3×) and 34813 and 33885
Rat hippocampal cultures [2]; 1 μM + 10 μM hydrogen peroxide
  Neuronal viability (CFDA), % of Control: 67 ± 4%
  Neuronal viability (CFDA), Mean: 38073
Rat hippocampal cultures [2]; [5]
  Neuronal viability (CFDA), % of Control: 71 ± 5%
  Neuronal viability (CFDA), Mean: 40512
Rat hippocampal cultures [2]; [6]
  Neuronal viability (CFDA), % of Control: 68 ± 4%
  Neuronal viability (CFDA), Mean: 38674
Rat hippocampal cultures [2]; [7]
  Neuronal viability (CFDA), % of Control: 72 ± 4%
  Neuronal viability (CFDA), Mean: 41274
Rat hippocampal cultures [3]; [4]
  Cell death (Propidium Iodide), % of Control: 172 ± 5%
  Cell death (Propidium Iodide), Mean: 274
  Cell death (Propidium Iodide), individual values: 258 and 294 (2×) and 259 and 266
Rat hippocampal cultures [3]; 1 μM + 10 μM hydrogen peroxide
  Cell death (Propidium Iodide), % of Control: 166 ± 9%
  Cell death (Propidium Iodide), Mean: 264
  Cell death (Propidium Iodide), individual values: 229 and 294 and 258 and 242 and 298
Rat hippocampal cultures [3]; [5]
  Cell death (Propidium Iodide), % of Control: 167 ± 13%
  Cell death (Propidium Iodide), Mean: 266
  Cell death (Propidium Iodide), individual values: 293 and 329 and 258 and 225 (2×)
Rat hippocampal cultures [3]; [6]
  Cell death (Propidium Iodide), % of Control: 157 ± 8%
  Cell death (Propidium Iodide), Mean: 249
  Cell death (Propidium Iodide), individual values: 225 (2×) and 258 and 242 and 294
Rat hippocampal cultures [3]; [7]
  Cell death (Propidium Iodide), % of Control: 182 ± 8%
  Cell death (Propidium Iodide), Mean: 290
  Cell death (Propidium Iodide), individual values: 302 and 294 (2×) and 320 and 242

## CC(C)(O)c1nc2ncccc2cc1N [ALD5]
Rat hippocampal cultures [2]; [4]
  Neuronal viability (CFDA), % of Control: 69 ± 1%
  Neuronal viability (CFDA), Mean: 38942
Rat hippocampal cultures [2]; 1 μM + 10 μM hydrogen peroxide
  Neuronal viability (CFDA), % of Control: 66 ± 3%
  Neuronal viability (CFDA), Mean: 37447
Rat hippocampal cultures [2]; [5]
  Neuronal viability (CFDA), % of Control: 65 ± 3%
  Neuronal viability (CFDA), Mean: 36940
Rat hippocampal cultures [2]; [6]
  Neuronal viability (CFDA), % of Control: 66 ± 4%
  Neuronal viability (CFDA), Mean: 37605
Rat hippocampal cultures [2]; [7]
  Neuronal viability (CFDA), % of Control: 74 ± 1%
  Neuronal viability (CFDA), Mean: 42249
Rat hippocampal cultures [3]; [4]
  Cell death (Propidium Iodide), % of Control: 202 ± 15%
  Cell death (Propidium Iodide), Mean: 301
  Cell death (Propidium Iodide), individual values: 225 and 325 and 294 (2×) and 366
Rat hippocampal cultures [3]; 1 μM + 10 μM hydrogen peroxide
  Cell death (Propidium Iodide), % of Control: 196 ± 1%
  Cell death (Propidium Iodide), Mean: 292
  Cell death (Propidium Iodide), individual values: 285 and 294 (4×)
Rat hippocampal cultures [3]; [5]
  Cell death (Propidium Iodide), % of Control: 191 ± 11%
  Cell death (Propidium Iodide), Mean: 285
  Cell death (Propidium Iodide), individual values: 294 (3×) and 320 and 225
Rat hippocampal cultures [3]; [6]
  Cell death (Propidium Iodide), % of Control: 181 ± 7%
  Cell death (Propidium Iodide), Mean: 269
  Cell death (Propidium Iodide), individual values: 250 (2×) and 294 (2×) and 255
Rat hippocampal cultures [3]; [7]
  Cell death (Propidium Iodide), % of Control: 205 ± 8%
  Cell death (Propidium Iodide), Mean: 305
  Cell death (Propidium Iodide), individual values: 294 (3×) and 293 and 352

## [2H]C([2H])([2H])C(O)(c1nc2ccc(Cl)cc2cc1N)C([2H])([2H])[2H] [ALD6]
Rat hippocampal cultures [2]; [4]
  Neuronal viability (CFDA), % of Control: 59 ± 3%
  Neuronal viability (CFDA), Mean: 34394
Rat hippocampal cultures [2]; 1 μM + 10 μM hydrogen peroxide
  Neuronal viability (CFDA), % of Control: 65 ± 5%
  Neuronal viability (CFDA), Mean: 38055
Rat hippocampal cultures [2]; [5]
  Neuronal viability (CFDA), % of Control: 83 ± 4%
  Neuronal viability (CFDA), Mean: 48055*
Rat hippocampal cultures [2]; [6]
  Neuronal viability (CFDA), % of Control: 98 ± 4%
  Neuronal viability (CFDA), Mean: 57123*
Rat hippocampal cultures [2]; [7]
  Neuronal viability (CFDA), % of Control: 98 ± 4%
  Neuronal viability (CFDA), Mean: 56976*
  Neuronal viability (CFDA), individual values: 53184 (3×) and 59551 and 65778
Rat hippocampal cultures [3]; [4]
  Cell death (Propidium Iodide), % of Control: 165 ± 15%
  Cell death (Propidium Iodide), Mean: 273
  Cell death (Propidium Iodide), individual values: 294 and 242 and 356 and 225 and 250
Rat hippocampal cultures [3]; 1 μM + 10 μM hydrogen peroxide
  Cell death (Propidium Iodide), % of Control: 120 ± 5%
  Cell death (Propidium Iodide), Mean: 198*
  Cell death (Propidium Iodide), individual values: 223 and 183 (2×) and 189 and 214
Rat hippocampal cultures [3]; [5]
  Cell death (Propidium Iodide), % of Control: 107 ± 5%
  Cell death (Propidium Iodide), Mean: 176*
  Cell death (Propidium Iodide), individual values: 189 (2×) and 139 and 179 and 183
Rat hippocampal cultures [3]; [6]
  Cell death (Propidium Iodide), % of Control: 108 ± 7%
  Cell death (Propidium Iodide), Mean: 178*
  Cell death (Propidium Iodide), individual values: 206 and 189 and 135 and 167 and 193
Rat hippocampal cultures [3]; [7]
  Cell death (Propidium Iodide), % of Control: 107 ± 6%
  Cell death (Propidium Iodide), Mean: 176*
  Cell death (Propidium Iodide), individual values: 189 (2×) and 147 and 197 and 159

## CC(C)(O)c1nc2ccccc2nc1N [ALD-2]
Rat hippocampal cultures [2]; [8]
  EC50 ± SE: Inactive
  Full Efficacy Concentration: Inactive
  No effect Concentration: Inactive
Rat hippocampal cultures [3]; [9]
  EC50 ± SE: Inactive
  Full Efficacy Concentration: Inactive
  No effect Concentration: Inactive
Rat hippocampal cultures [3]; PI, 0.1 to 300 μM, 10 μM hydrogen peroxide, 5 h
  protection from cell death: no statistically significant protection from cell death; also recorded: did not produce statistically significant protection from cell death
